# Measurements as given in patent US6613786B2, “Thiophenyl triazol-3-one derivatives as smooth muscle relaxants” (Bristol-Myers Squibb Company, priority 2001, dated 2003).
# System: rat bladder strip
# Assay: in vitro rat bladder strip model: inhibition of 10 μM carbachol induced contraction
# Conditions: 1 h; test compound at 3 μM, one hour incubation; 10 μM carbachol induced contraction of rat bladder strip; percent inhibition over controls, normalized for vehicle effects
# Procedure: The ability of the compounds of the present invention to relax smooth muscle tissue was assessed by their ability to inhibit carbachol induced contractions in mammalian smooth muscle tissue. More specifically, the compounds of the present invention were screened in an in vitro rat bladder strip model to estimate their inhibitory effects on 10 μM carbachol induced contraction of the rat bladder strip according to the following experimental protocol.
# 1. Bladder Strip Tissue Preparation
# Male rats were sacrificed by decapitation, the bladder removed and cleaned of connective tissue. Strips of bladder were then cut from the bladder body and placed in organ baths, suspended between a fixed hook and a force transducer, containing oxygenated physiological buffer maintained at 37° C.
# The bladder strips were primed by stimulating them with 10 μM carbachol to evoke a contraction. The strips were then washed multiple times with fresh physiological buffer and allowed to fully relax. Following a period of recovery, the strips were again challenged with 10 μM carbachol to produce a contraction; this contractile response served as control response. The strips were again washed multiple times and allowed to fully relax (45 minutes). Test compound (3 μM) or vehicle was then added to each organ bath. Following a one hour incubation period, the strips were again stimulated with 10 μM carbachol and the contractile response measured.
# The percent inhibition of the carbachol response by the test compounds was calculated by comparing control and post-compound carbachol responses normalized for vehicle effects. The percentage inhibition for each compound at 3 μM concentration is provided below in Table 1.
row,Structure (SMILES),inhibition at 3 µM [%]
1,"O=c1[nH]c(-c2ccc(Br)s2)nn1-c1cc(Cl)ccc1O [Example 1, 5-(5-Bromothiophen-2-yl)-2-(5-chloro-2-hydroxyphenyl)-2,4-dihydro-[1,2,4]triazol-3-one]",35 to 50
2,"O=c1[nH]c(-c2ccc(Cl)s2)nn1-c1cc(Cl)ccc1O [Example 2, 2-(5-Chloro-2-hydroxyphenyl)-5-(5-chlorothiophen-2-yl)-2,4-dihydro-[1,2,4]triazol-3-one]",35 to 50
3,"O=c1[nH]c(-c2ccc(I)s2)nn1-c1cc(Cl)ccc1O [Example 3, 2-(5-Chloro-2-hydroxyphenyl)-5-(5-iodothiophen-2-yl)-2,4-dihydro-[1,2,4]triazol-3-one]",35 to 50
4,"O=c1[nH]c(-c2cc(Br)cs2)nn1-c1cc(Cl)ccc1O [Example 4, 5-(4-Bromothiophen-2-yl)-2-(5-chloro-2-hydroxyphenyl)-2,4-dihydro-[1,2,4]triazol-3-one]",35 to 50
5,"O=c1[nH]c(-c2cc(Cl)cs2)nn1-c1cc(Cl)ccc1O [Example 5, 5-(4-Chlorothiophen-2-yl)-2-(5-chloro-2-hydroxyphenyl)-2,4-dihydro-[1,2,4]triazol-3-one]",35 to 50
6,"O=c1[nH]c(-c2sccc2Br)nn1-c1cc(Cl)ccc1O [Example 6, 5-(3-Bromothiophen-2-yl)-2-(5-chloro-2-hydroxyphenyl)-2,4-dihydro-[1,2,4]triazol-3-one]",35 to 50
7,"O=c1[nH]c(-c2sccc2Cl)nn1-c1cc(Cl)ccc1O [Example 7, 2-(5-Chloro-2-hydroxyphenyl)-5-(3-chlorothiophen-2-yl)-2,4-dihydro-[1,2,4]triazol-3-one]",35 to 50
8,"O=c1[nH]c(-c2sccc2I)nn1-c1cc(Cl)ccc1O [Example 8, 2-(5-Chloro-2-hydroxyphenyl)-5-(3-iodothiophen-2-yl)-2,4-dihydro-[1,2,4]triazol-3-one]",20 to 35
9,"O=c1[nH]c(-c2cc(Br)c(Br)s2)nn1-c1cc(Cl)ccc1O [Example 9, 2-(5-Chloro-2-hydroxyphenyl)-5-(4,5-dibromothiophen-2-yl)-2,4-dihydro-[1,2,4]triazol-3-one]",5 to 20
10,"O=c1[nH]c(-c2cc(Cl)c(Cl)s2)nn1-c1cc(Cl)ccc1O [Example 10, 2-(5-Chloro-2-hydroxyphenyl)-5-(4,5-dichlorothiophen-2-yl)-2,4-dihydro-[1,2,4]triazol-3-one]",20 to 35
11,"O=c1[nH]c(-c2cc(Br)c(Cl)s2)nn1-c1cc(Cl)ccc1O [Example 11, 5-(4-Bromo-5-chlorothiophen-2-yl)-2-(5-chloro-2-hydroxyphenyl)-2,4-dihydro-[1,2,4]triazol-3-one]",20 to 35
12,"O=c1[nH]c(-c2scc(Br)c2Br)nn1-c1cc(Cl)ccc1O [Example 12, 2-(5-Chloro-2-hydroxyphenyl)-5-(3,4-dibromothiophen-2-yl)-2,4-dihydro-[1,2,4]triazol-3-one]",20 to 35
13,"O=c1[nH]c(-c2scc(Cl)c2Cl)nn1-c1cc(Cl)ccc1O [Example 13, 2-(5-Chloro-2-hydroxyphenyl)-5-(3,4-dichlorothiophen-2-yl)-2,4-dihydro-[1,2,4]triazol-3-one]",35 to 50
14,"O=c1[nH]c(-c2sc(Br)cc2Br)nn1-c1cc(Cl)ccc1O [Example 14, 2-(5-Chloro-2-hydroxyphenyl)-5-(3,5-dibromothiophen-2-yl)-2,4-dihydro-[1,2,4]triazol-3-one]",35 to 50
15,"O=c1[nH]c(-c2sc(Br)c(Br)c2Br)nn1-c1cc(Cl)ccc1O [Example 15, 2-(5-Chloro-2-hydroxyphenyl)-5-(3,4,5-tribromothiophen-2-yl)-2,4-dihydro-[1,2,4]triazol-3-one]",5 to 20
16,"O=c1[nH]c(-c2sc(Cl)c(Cl)c2Cl)nn1-c1cc(Cl)ccc1O [Example 16, 2-(5-Chloro-2-hydroxyphenyl)-5-(3,4,5-trichlorothiophen-2-yl)-2,4-dihydro-[1,2,4]triazol-3-one]",20 to 35

row,Structure (SMILES),inhibition at 3 µM [%]
1,"Cc1sc(-c2nn(-c3cc(Cl)ccc3O)c(=O)[nH]2)cc1Br [Example 17, 5-(4-Bromo-5-methylthiophen-2-yl)-2-(5-chloro-2-hydroxyphenyl)-2,4-dihydro-[1,2,4]triazol-3-one]",20 to 35
2,"O=c1[nH]c(-c2cc(Br)sc2Br)nn1-c1cc(Cl)ccc1O [Example 18, 2-(5-Chloro-2-hydroxyphenyl)-5-(2,5-dibromothiophen-3-yl)-2,4-dihydro-[1,2,4]triazol-3-one]",20 to 35
3,"O=c1[nH]c(-c2cc(Cl)sc2Cl)nn1-c1cc(Cl)ccc1O [Example 19, 2-(5-Chloro-2-hydroxyphenyl)-5-(2,5-dichlorothiophen-3-yl)-2,4-dihydro-[1,2,4]triazol-3-one]",35 to 50
4,"C=CCc1cc(Cl)cc(-n2nc(-c3ccc(Br)s3)[nH]c2=O)c1O [Example 20, 2-(3-Allyl-5-chloro-2-hydroxyphenyl)-5-(5-bromothiophen-2-yl)-2,4-dihydro-[1,2,4]triazol-3-one]",20 to 35
5,"O=c1[nH]c(-c2ccc(Br)s2)nn1-c1cc(Cl)cc(Br)c1O [Example 21, 2-(3-Bromo-5-chloro-2-hydroxyphenyl)-5-(5-bromothiophen-2-yl)-2,4-dihydro-[1,2,4]triazol-3-one]",20 to 35
6,"Cc1cc(Cl)cc(-n2nc(-c3ccc(Br)s3)[nH]c2=O)c1O [Example 22, 5-(5-Bromothiophen-2-yl)-2-(5-chloro-2-hydroxy-3-methylphenyl)-2,4-dihydro-[1,2,4]triazol-3-one]",20 to 35
7,"O=c1[nH]c(-c2ccc(Br)s2)nn1-c1cc(Cl)cc(Cl)c1O [Example 23, 5-(5-Bromothiophen-2-yl)-2-(3,5-dichloro-2-hydroxyphenyl)-2,4-dihydro-[1,2,4]triazol-3-one]",20 to 35
8,"Cc1cc(O)c(-n2nc(-c3ccc(Br)s3)[nH]c2=O)cc1Cl [Example 24, 5-(5-Bromothiophen-2-yl)-2-(5-chloro-2-hydroxy-4-methylphenyl)-2,4-dihydro-[1,2,4]triazol-3-one]",20 to 35
9,"O=c1[nH]c(-c2ccc(Br)s2)nn1-c1cc(Cl)c(Br)cc1O [Example 25, 2-(4-Bromo-5-chloro-2-hydroxyphenyl)-5-(5-bromothiophen-2-yl)-2,4-dihydro-[1,2,4]triazol-3-one]",20 to 35
10,"O=c1[nH]c(-c2ccc(Br)s2)nn1-c1cc(C(F)(F)F)ccc1O [Example 26, 5-(5-Bromothiophen-2-yl)-2-(2-hydroxy-5-trifluoromethylphenyl)-2,4-dihydro-[1,2,4]triazol-3-one]",35 to 50
11,"O=c1[nH]c(-c2ccc(Br)s2)nn1-c1cc(Br)ccc1O [Example 27, 2-(5-Bromo-2-hydroxyphenyl)-5-(5-bromothiophen-2-yl)-2,4-dihydro-[1,2,4]triazol-3-one]",35 to 50
12,"O=c1[nH]c(-c2ccc(Br)s2)nn1-c1cc(F)ccc1O [Example 28, 5-(5-Bromothiophen-2-yl)-2-(5-fluoro-2-hydroxyphenyl)-2,4-dihydro-[1,2,4]triazol-3-one]",20 to 35
13,"CC=Cc1cc(Cl)cc(-n2nc(-c3ccc(Br)s3)[nH]c2=O)c1O [Example 29, 5-(5-Bromothiophen-2-yl)-2-(5-chloro-2-hydroxy-3-(prop-1-en-1-yl)phenyl)-2,4-dihydro-[1,2,4]triazol-3-one]",20 to 35
14,"CCCc1cc(Cl)cc(-n2nc(-c3cccs3)[nH]c2=O)c1O [Example 30, 2-(5-Chloro-2-hydroxy-3-propylphenyl)-5-(thiophen-2-yl)-2,4-dihydro-[1,2,4]triazol-3-one]",20 to 35
15,"O=c1[nH]c(-c2ccc(Cl)s2)nn1-c1cc(Br)ccc1O [Example 31, 2-(5-Bromo-2-hydroxyphenyl)-5-(5-chlorothiophen-2-yl)-2,4-dihydro-[1,2,4]triazol-3-one]",20 to 35
16,"O=c1[nH]c(-c2ccc(Cl)s2)nn1-c1cc(F)ccc1O [Example 32, 5-(5-Chlorothiophen-2-yl)-2-(5-fluoro-2-hydroxyphenyl)-2,4-dihydro-[1,2,4]triazol-3-one]",35 to 50
